Test results taken from patent US7906655B2, “Hepatitis C virus inhibitors” (Bristol-Myers Squibb Company, priority 2008, dated 2011).

Tested on: HCV 1b genotype
Assay: HCV Replicon assay (HCV-neo replicon cells, wild-type)
Assay type: cell-based
Conditions: HCV 1b genotype replicon; class symbols
Description: An HCV Replicon assay was utilized in the present disclosure, and was prepared, conducted and validated as described in commonly owned PCT/US2006/022197 and in O'Boyle et. al. Antimicrob Agents Chemother. 2005 April; 49 (4):1346-53. Assay methods incorporating luciferase reporters have also been used as described (Apath.com).
HCV-neo replicon cells and replicon cells containing mutations in the NS5A region were used to test the currently described family of compounds. The compounds were determined to have more than 10-fold less inhibitory activity on cells containing mutations than wild-type cells. Thus, the compounds of the present disclosure can be effective in inhibiting the function of the HCV NS5A protein and are understood to be as effective in combinations as previously described in application PCT/US2006/022197 and commonly owned WO/O4014852. Further, the compounds of the present disclosure can be effective against the HCV 1b genotype. It should also be understood that the compounds of the present disclosure can inhibit multiple genotypes of HCV. […] In one embodiment, compounds of the present disclosure are inhibitory versus 1a, 1b, 2a, 2b, 3a, 4a, and 5a genotypes.

Row | Structure (SMILES) | EC50 [nM]
1 | C[C@@H](c1nc2cc(C#Cc3ccc4[nH]c([C@H](C)N(C)C(=O)Cc5ccccc5)nc4c3)ccc2[nH]1)N(C)C(=O)Cc1ccccc1 [Example M32] | < 4.57
2 | CN(C)[C@@H](C(=O)N1CCC[C@H]1c1nc2cc(-c3cnc(-c4cccc5[nH]c([C@@H]6C[C@@H]7C[C@@H]7N6C(=O)[C@@H](c6ccccc6)N(C)C)nc45)o3)ccc2[nH]1)c1ccccc1 (single isomer, unassigned) [Example J25.a] | 4.57 to 99
3 | COC(=O)NC(C(=O)N1[C@@H]2C[C@@H]2C[C@H]1c1nc2cc(-c3ccc(Oc4cccc5[nH]c([C@@H]6C[C@H]7C[C@H]7N6C(=O)C(NC(=O)OC)c6ccccc6)nc45)cc3)ccc2[nH]1)c1ccccc1 (stereo partly drawn) [Example V9, methyl (2-((1R,3S,5R)-3-(5-(4-((2-((1R,3S,5R)-2-(((methoxycarbonyl)amino)(phenyl)acetyl)-2-azabicyclo[3.1.0]hex-3-yl)-1H-benzimidazol-4-yl)oxy)phenyl)-1H-benzimidazol-2-yl)-2-azabicyclo[3.1.0]hex-2-yl)-2-oxo-1-phenylethyl) carbamate] | < 4.57

Same assay, conditions: Hepatitis C virus, HCV 1b genotype replicon; class symbols

Row | Structure (SMILES) | EC50 [nM]
4 | O=C(c1ccco1)N1CCC[C@H]1c1nc2cc(C#Cc3ccc4[nH]c([C@@H]5CCCN5C(=O)c5ccco5)nc4c3)ccc2[nH]1 [Example M26.6, 5,5′-(1,2-ethynediyl)bis(2-((2S)-1-(2-furoyl)-2-pyrrolidinyl)-1H-benzimidazole)] | 4.57 to 99
5 | CC(=O)N[C@@H](C(=O)N1CCC[C@H]1c1nc2cc(-c3cnc(-c4cccc5[nH]c([C@@H]6CCCN6C(=O)[C@H](NC(C)=O)c6ccccc6)nc45)o3)ccc2[nH]1)c1ccccc1 [Example J12, N-((1R)-2-((2S)-2-(4-(5-(2-((2S)-1-((2R)-2-acetamido-2-phenylacetyl)-2-pyrrolidinyl)-1H-benzimidazol-5-yl)-1,3-oxazol-2-yl)-1H-benzimidazol-2-yl)-1-pyrrolidinyl)-2-oxo-1-phenylethyl) acetamide] | < 4.57
6 | O=C(c1cccnc1)N1CCC[C@H]1c1nc2ccc(C#Cc3ccc4[nH]c([C@@H]5CCCN5C(=O)[C@H]5CCCO5)nc4c3)cc2[nH]1 [Example M54.3, 5-((2-((2S)-1-(3-pyridinylcarbonyl)-2-pyrrolidinyl)-1H-benzimidazol-6-yl)ethynyl)-2-((2S)-1-((2R)-tetrahydro-2-furanylcarbonyl)-2-pyrrolidinyl)-1H-benzimidazole] | 4.57 to 99
7 | CC(=O)N[C@@H](C(=O)N1CCC[C@H]1c1nc2cc(-c3cnc(-c4ccc5nc([C@@H]6CCCN6C(=O)[C@H](NC(C)=O)c6ccccc6)[nH]c5c4)o3)ccc2[nH]1)c1ccccc1 [Example J21, N-((1R)-2-((2S)-2-(5-(2-(2-((2S)-1-((2R)-2-acetamido-2-phenylacetyl)-2-pyrrolidinyl)-1H-benzimidazol-6-yl)-1,3-oxazol-5-yl)-1H-benzimidazol-2-yl)-1-pyrrolidinyl)-2-oxo-1-phenylethyl) acetamide] | < 4.57
8 | CC(=O)N1CCC[C@H]1c1nc2ccc(C#Cc3ccc4[nH]c([C@@H]5CCCN5C(=O)N5CCN(C)CC5)nc4c3)cc2[nH]1 [Example M55, 5-((2-((2S)-1-acetyl-2-pyrrolidinyl)-1H-benzimidazol-6-yl)ethynyl)-2-((2S)-1-((4-methyl-1-piperazinyl)carbonyl)-2-pyrrolidinyl)-1H-benzimidazole] | 100 to 999
9 | CC(=O)N1CCC[C@H]1c1nc2ccc(C#Cc3ccc4[nH]c([C@@H]5CCCN5C(=O)Cc5ccccc5)nc4c3)cc2[nH]1 [Example M54.16, 5-((2-((2S)-1-acetyl-2-pyrrolidinyl)-1H-benzimidazol-6-yl)ethynyl)-2-((2S)-1-(phenylacetyl)-2-pyrrolidinyl)-1H-benzimidazole] | 4.57 to 99
10 | CCC(=O)N1CCC[C@H]1c1nc2ccc(C#Cc3ccc4[nH]c([C@@H]5CCCN5C(=O)[C@H]5CCCO5)nc4c3)cc2[nH]1 [Example M54.7, 5-((2-((2S)-1-propionyl-2-pyrrolidinyl)-1H-benzimidazol-6-yl)ethynyl)-2-((2S)-1-((2R)-tetrahydro-2-furanylcarbonyl)-2-pyrrolidinyl)-1H-benzimidazole] | 4.57 to 99
11 | O=C(C1CC1)N1CCC[C@H]1c1nc2ccc(C#Cc3ccc4[nH]c([C@@H]5CCCN5C(=O)[C@H]5CCCO5)nc4c3)cc2[nH]1 [Example M54.9, 5-((2-((2S)-1-(cyclopropyl-carbonyl)-2-pyrrolidinyl)-1H-benzimidazol-6-yl)ethynyl)-2-((2S)-1-((2R)-tetrahydro-2-furanylcarbonyl)-2-pyrrolidinyl)-1H-benzimidazole] | 4.57 to 99
12 | COC(=O)N[C@H](C(=O)N1[C@@H]2C[C@@H]2C[C@H]1c1nc2cc(Oc3cccc(-c4ccc5[nH]c([C@@H]6C[C@H]7C[C@H]7N6C(=O)[C@@H](NC(=O)OC)C(C)C)nc5c4)c3)ccc2[nH]1)C(C)C [Example V1, Methyl((1S)-1-(((1R,3S,5R)-3-(5-(3-(2-((1R,3S,5R)-2-((2S)-2-((methoxycarbonyl)amino)-3-methylbutanoyl)-2-azabicyclo[3.1.0]hex-3-yl)-1H-benzimidazol-5-yl)phenoxy)-1H-benzimidazol-2-yl)-2-azabicyclo[3.1.0]hex-2-yl)carbonyl)-2-methylpropyl)carbamate] | < 4.57
13 | COc1cccc2c(C(=O)N3CCC[C@H]3c3nc4cc(C#Cc5ccc6nc([C@@H]7CCCN7C(=O)c7nc(Cl)cc8c(OC)cccc78)[nH]c6c5)ccc4[nH]3)nc(Cl)cc12 [Example M18, 3-chloro-1-(((2S)-2-(5-((2-((2S)-1-((3-chloro-5-methoxy-1-isoquinolinyl)carbonyl)-2-pyrrolidinyl)-1H-benzimidazol-6-yl)ethynyl)-1H-benzimidazol-2-yl)-1-pyrrolidinyl)carbonyl)-5-methoxyisoquinoline] | 100 to 999
14 | COC(=O)N[C@@H](C(=O)N1CCC[C@H]1c1nc2ccc(C(=O)c3ccc4nc([C@@H]5CCCN5C(=O)[C@H](NC(=O)OC)c5ccccc5)[nH]c4c3)cc2[nH]1)c1ccccc1 [Example J33] | < 4.57
15 | CC(=O)N1CCC[C@H]1c1nc2ccc(C#Cc3ccc4[nH]c([C@@H]5CCCN5C(=O)c5cccs5)nc4c3)cc2[nH]1 [Example M54.24, 5-((2-((2S)-1-acetyl-2-pyrrolidinyl)-1H-benzimidazol-6-yl)ethynyl)-2-((2S)-1-(2-thienylcarbonyl)-2-pyrrolidinyl)-1H-benzimidazole] | 4.57 to 99
16 | O=C(c1ccccc1NCc1ccccc1)N1CCC[C@H]1c1nc2cc(C#Cc3ccc4[nH]c([C@@H]5CCCN5C(=O)[C@H]5CCCO5)nc4c3)ccc2[nH]1 [Example M54.13, N-benzyl-2-(((2S)-2-(5-((2-((2S)-1-((2R)-tetrahydro-2-furanylcarbonyl)-2-pyrrolidinyl)-1H-benzimidazol-5-yl)ethynyl)-1H-benzimidazol-2-yl)-1-pyrrolidinyl)carbonyl)aniline] | 100 to 999

Same assay, conditions: Hepatitis C virus, HCV 1b genotype replicon; numeric values

Row | Structure (SMILES) | EC50 [nM]
17 | O=C(c1ccncc1)N1CCN(C(=O)OCc2ccccc2)C(c2nc3cc(CCc4ccc5nc(C6CN(C(=O)c7ccncc7)CCN6C(=O)OCc6ccccc6)[nH]c5c4)ccc3[nH]2)C1 (centres unmarked) [OL13, benzyl 2-(5-(2-(2-(1-((benzyloxy)carbonyl)-4-isonicotinoyl-2-piperazinyl)-1H-benzimidazol-6-yl)ethyl)-1H-benzimidazol-2-yl)-4-isonicotinoyl-1-piperazinecarboxylate] | 8560
